Read-outs that look alike come from different tables or passages of the source.
Tests used:
PC-3 cells [1] = test system: PC-3 cells
Experimental: (§1) MDA PCa 2b was seeded at the same density in medium BRFF-HPC1 (Athena Enzyme Systems, Baltimore, Md., USA) supplemented with 20% FBS. After overnight incubation, the medium was changed to a fresh medium containing different concentrations of test compounds diluted from stock DMSO solution. The final concentration of DMSO is 0.5%. After 72 h of incubation with test compounds, 20 μL of 3-(4,5-dimethyl thiazol-2-yl)-2,5-diphenyltetrazolium bromide (MTT) solution (5 mg/mL in PBS) were added to each well and incubated further for 2 h. Next, the supernatant was aspirated and the MTT formazan formed by metabolically viable cells was dissolved in 100 μL of isopropanol. The plates were mixed for 30 min, and the absorbance was measured at 600 nm on a plate reader (FLUOstar OPTIMA, BMG LabTech). All samples were in triplicate. The IC50 values were determined from dose-response curves by nonlinear regression using PRISM v5.00 (GraphPad Software Inc, La Jolla, Calif., USA).
(§2) The in vitro cytotoxicity of 1-20 were evaluated by MTT assays in a panel of prostate cancer cell lines, including LNCaP, MDA PCa 2b, 22Rv1, C4-2B and PC-3.

LNCaP cells [2] = test system: LNCaP cells;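 note: MTT formazan absorbance at 600 nm read after 72 h of compound exposure, IC50 fitted by nonlinear regression of dose-response curves, samples run in triplicate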
22Rv1 cells [3] = test system: 22Rv1 cells
Experimental: as §1, §2

C4-2B cells [4] = test system: C4-2B cells;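 note: cells treated with a dilution series for 72 h, then MTT added and absorbance read at 600 nm, IC50 fitted from dose-response curves by nonlinear regression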
Experimental: as §1, §2

LNCaP cells [5] = test: MTT cell growth inhibition, LNCaP;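 note: MTT formazan absorbance at 600 nm read after 72 h of compound exposure, IC50 fitted by nonlinear regression of dose-response curves, samples run in triplicate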
PC-3 cells [6] = test: MTT cell growth inhibition, PC-3
Experimental: as §1, §2

C4-2B cells [7] = test: MTT cell growth inhibition, C4-2B;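 note: cells treated with a dilution series for 72 h, then MTT added and absorbance read at 600 nm, IC50 fitted from dose-response curves by nonlinear regression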
Experimental: as §1, §2

22Rv1 cells [8] = test: MTT cell growth inhibition, 22Rv1; conditions: read-out: Cellular IC50 (μM) 22Rv1, MTT
Experimental: as §1, §2

SMILES | IC50 (PC-3 cells [1]) [µM] | IC50 (LNCaP cells [2]) [µM] | IC50 (22Rv1 cells [3]) [µM] | further results
COc1ccc(/C=C/C(=O)/C=C/C2=C(C)CCCC2(C)C)cc1O [Compound B2] | 37.4 | 9.9 |  | 
CC1=CCCC(C)(C)C1/C=C/C(=O)/C=C/c1cccc(C)c1 (racemic) [Compound B22] | 5.9 | 12.2 | 15.2 | IC50 (C4-2B cells [4]): 6.2 µM
COc1cc(/C=C/C(=O)/C=C/C2=C(C)CCCC2(C)C)ccc1O [Compound B1] | 21.3 | 9.5 |  | 
CCOC(OCC)c1cccc(/C=C/C(=O)/C=C/C2=C(C)C(O)CCC2(C)C)c1 (stereo not shown) [Compound B43] | 4.7 | 1.8 |  | 
CC1=C(/C=C/C(=O)/C=C/c2ccccc2F)C(C)(C)CCC1 [Compound B8] | 22.1 | 10.7 |  | 
CC1=C(/C=C/C(=O)/C=C/c2ccccc2F)C(C)(C)CCC1O (racemic) [Compound B29] | 10.4 | 2.9 | 3.3 | 
CC1=C(/C=C/C(=O)/C=C/c2ccc(-c3ccccc3)cc2)C(C)(C)CCC1 [Compound B15] | 47.8 | 14.8 |  | 
CC1=CCCC(C)(C)C1/C=C/C(=O)/C=C/c1ccccc1C(F)(F)F (racemic) [Compound B16] | 19 | 22.6 | 18.4 | IC50 (C4-2B cells [4]): 11.7 µM
CC1=C(/C=C/C(=O)/C=C/c2cccc(C(F)(F)F)c2F)C(C)(C)CCC1O (racemic) [Compound B34] | 2.1 | 1.1 |  | 
CC1=C(/C=C/C(=O)/C=C/c2cccc(F)c2)C(C)(C)CCC1O (racemic) [Compound B30] | 16 | 4.4 | 5.6 | 
CC1=C(/C=C/C(=O)/C=C/c2c(F)cccc2C(F)(F)F)C(C)(C)CCC1O (racemic) [Compound B37] | 8.8 | 4.9 | 8.9 | 
CC1=C(/C=C/C(=O)/C=C/c2cccc(C#N)c2)C(C)(C)CCC1O (racemic) [Compound B39] | 7.2 | 1.8 | 2.2 | 
COc1cccc(/C=C/C(=O)/C=C/C2=C(C)C(O)CCC2(C)C)c1 (racemic) [Compound B42] | 6.5 | 4.9 |  | 
CC1=C(/C=C/C(=O)/C=C/c2ccc(C(F)(F)F)cc2)C(C)(C)CCC1 [Compound B6] | 12 | 9.1 |  | 
CC1=C(/C=C/C(=O)/C=C/c2cc(F)cc(C(F)(F)F)c2)C(C)(C)CCC1O (racemic) [Compound B33] | 3 | 1.1 | 2.4 | 
COc1ccc(/C=C/C(=O)/C=C/C2=C(C)CCCC2(C)C)cc1OC [Compound B3] | 42 | 9.5 |  | 
CC1=C(/C=C/C(=O)/C=C/c2cccc(C)c2)C(C)(C)CCC1 [Compound B14] | 35 | 17.8 |  | 
CC1=C(/C=C/C(=O)/C=C/c2ccc(F)cc2)C(C)(C)CCC1 [Compound B10] | 25.8 | 7.3 |  | 
CC1=C(/C=C/C(=O)/C=C/c2cc(C(F)(F)F)ccc2F)C(C)(C)CCC1O (racemic) [Compound B36] | 3.6 | 1.7 | 2 | 
CC1(C)CCC(O)C=C1/C=C/C(=O)/C=C/c1ccc2c(c1)OCO2 (stereo not shown) [Compound B76] |  |  |  | IC50 (LNCaP cells [5]; read-out: Cellular IC50 (μM) LNCaP, Table 9): 11.2 µM; IC50 (PC-3 cells [6]; read-out: Cellular IC50 (μM) PC-3, Table 9): 25.8 µM; IC50 (C4-2B cells [7]; read-out: Cellular IC50 (μM) C4-2B, Table 9): 6.2 µM; IC50 (22Rv1 cells [8]; Table 9): 20.1 µM
CC1=C(/C=C/C(=O)/C=C/c2ccc([N+](=O)[O-])cc2)C(C)(C)CCC1O (racemic) [Compound B41] | 15 | 4.2 | 4.1 | 
COc1cc(C=CC(=O)C(=Cc2cc(OC)c(OC)c(OC)c2)C(=O)C=CC2=C(C)CCCC2(C)C)cc(OC)c1OC [Compound 16] |  |  |  | IC50 (LNCaP cells [5]; read-out: Cellular IC50 (μM) LNCaP, Table 2, 72 h): 3.4 µM; IC50 (PC-3 cells [6]; read-out: Cellular IC50 (μM) PC-3, Table 2, 72 h, max tested 50 μM (β-ionone 150 μM)): 5.9 µM; IC50 (C4-2B cells [7]; read-out: Cellular IC50 (μM) C4-2B, Table 2, 72 h): 2.2 µM; IC50 (22Rv1 cells [8]; Table 2, 72 h): 1.5 µM
CC1=C(/C=C/C(=O)/C=C/c2ccc(O)c([N+](=O)[O-])c2)C(C)(C)CCC1 [Compound B12] | > 50 | 26.8 |  | 
CC1=C(/C=C/C(=O)/C=C/c2cc([N+](=O)[O-])ccc2Cl)C(C)(C)CCC1 [Compound B13] | 18.9 | 4.2 |  | 
CC1=C(/C=C/C(=O)/C=C/c2ccc(-c3ccccc3)cc2)C(C)(C)CCC1O (stereo not shown) [Compound B57] |  |  |  | IC50 (LNCaP cells [5]; read-out: Cellular IC50 (μM) LNCaP, Table 8): 2.9 µM; IC50 (PC-3 cells [6]; read-out: Cellular IC50 (μM) PC3, Table 8): 11.9 µM; IC50 (C4-2B cells [7]; read-out: Cellular IC50 (μM) C4-2B, Table 8): 6 µM; IC50 (22Rv1 cells [8]; Table 8): 5.2 µM

— US8470889B2 (TRT Pharma Inc., priority 2008, dated 2013)
